Experimental data reported in PMC7979765, “trans-Translation inhibitors bind to a novel site on the ribosome and clear Neisseria gonorrhoeae in vivo” (Nature Communications, 2021).
Converted amounts (≈) assume the structure as drawn. “And” between values parts separate entries of the source, which are not always exact repeats. Identical values can stand only once.

Assays:
[1] = Liver microsome stability, human; format: in vitro ADME
Procedure: (§1) To examine potential for first-pass metabolism of analogs in the liver, the stability of analogs in the presence of liver microsome preparations (Eurofins Discovery for human, dog and rat; Xenotech for mouse) was measured using the method of Kuhnz, et al.[50]. for murine studies and Oback for the dog, human and rat studies. The amount of parent compound remaining after incubation with microsomes in the presence of NADPH over a 30 min time range was measured using a reverse-phase liquid chromatography/mass spectroscopy method that was customized for each compound. Half-lives were calculated using linear regression analysis of several time points.

Potassium Channel [KA] = test: Receptor Profiling 265510; format: binding, rat; conditions: 10 μM
Procedure: (§2) Several in vitro selectivity assays were performed at Eurofins Discovery Services using established methods and controls that behaved as expected (Supplementary Tables 5 and 6). […] For receptor panel profiling, MBX-4132 was evaluated at 10 μM and activity of >50% (agonist or antagonist; note that negative % inhibition indicates agonism) was scored as active.

Cannabinoid CB1 = target: T1, Cannabinoid CB1 (Homo sapiens, UniProt P21554); test: Receptor Profiling 217050; format: binding
T1 construct: purchased Eurofins Discovery Services (Panlabs safety panel)
T1 sequence (P21554 whole entry): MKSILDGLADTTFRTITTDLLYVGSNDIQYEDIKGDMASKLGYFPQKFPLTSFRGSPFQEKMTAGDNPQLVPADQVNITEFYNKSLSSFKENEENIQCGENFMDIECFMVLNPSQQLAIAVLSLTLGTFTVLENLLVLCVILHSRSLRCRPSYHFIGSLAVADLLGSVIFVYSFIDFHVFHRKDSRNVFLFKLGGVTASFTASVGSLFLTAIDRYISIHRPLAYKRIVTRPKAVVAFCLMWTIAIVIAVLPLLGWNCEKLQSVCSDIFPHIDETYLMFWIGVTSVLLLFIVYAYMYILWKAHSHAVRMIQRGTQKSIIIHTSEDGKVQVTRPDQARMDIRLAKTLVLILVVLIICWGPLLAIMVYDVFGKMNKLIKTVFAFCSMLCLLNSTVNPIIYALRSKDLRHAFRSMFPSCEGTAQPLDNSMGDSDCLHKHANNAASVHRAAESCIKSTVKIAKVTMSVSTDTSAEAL
Procedure: as §2

Dopamine D2s = target: T2, Dopamine D2s (Homo sapiens, UniProt P14416); test: Receptor Profiling 219700; format: binding
T2 construct: purchased Eurofins Discovery Services (Panlabs safety panel)
T2 sequence (P14416 1-414 isoform P14416-2): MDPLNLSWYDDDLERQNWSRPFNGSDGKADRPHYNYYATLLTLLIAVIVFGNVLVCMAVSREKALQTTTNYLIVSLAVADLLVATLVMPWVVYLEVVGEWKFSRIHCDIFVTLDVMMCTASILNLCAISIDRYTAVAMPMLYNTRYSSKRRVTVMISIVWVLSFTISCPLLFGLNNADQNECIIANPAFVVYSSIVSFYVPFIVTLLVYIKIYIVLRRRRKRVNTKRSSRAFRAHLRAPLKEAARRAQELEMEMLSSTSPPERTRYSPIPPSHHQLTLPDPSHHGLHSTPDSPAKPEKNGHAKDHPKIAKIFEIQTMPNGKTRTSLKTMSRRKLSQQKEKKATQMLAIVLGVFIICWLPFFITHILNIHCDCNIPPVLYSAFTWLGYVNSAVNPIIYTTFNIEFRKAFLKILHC
Procedure: as §2

CYP2C8 = target: T3, CYP2C8 (Homo sapiens, UniProt P10632); test: Cyp inhibition assay 4879; format: in vitro ADME; conditions: catalog reference 4879, read-out: pIC50 (µM) reported (converted)
T3 construct: Eurofins Discovery Services (contract assay) 4879
T3 sequence (P10632 whole entry): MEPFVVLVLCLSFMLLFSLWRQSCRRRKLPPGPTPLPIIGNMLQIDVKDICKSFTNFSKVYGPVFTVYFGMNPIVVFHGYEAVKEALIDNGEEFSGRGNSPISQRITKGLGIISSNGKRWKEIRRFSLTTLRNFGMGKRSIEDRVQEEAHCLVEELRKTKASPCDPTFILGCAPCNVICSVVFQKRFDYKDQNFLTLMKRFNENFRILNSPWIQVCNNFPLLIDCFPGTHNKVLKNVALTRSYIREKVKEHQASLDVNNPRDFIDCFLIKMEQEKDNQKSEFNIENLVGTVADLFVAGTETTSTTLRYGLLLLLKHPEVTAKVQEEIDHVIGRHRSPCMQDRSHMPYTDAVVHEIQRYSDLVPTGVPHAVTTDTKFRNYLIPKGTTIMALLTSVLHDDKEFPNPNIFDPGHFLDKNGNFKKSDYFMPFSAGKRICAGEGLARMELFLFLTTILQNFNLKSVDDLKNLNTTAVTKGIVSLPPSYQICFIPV
Procedure: as §2

[2] = target: T4, Serotonin (5-hydroxytryptamine) 5-HT2A (Homo sapiens, UniProt P28223); test: Receptor Profiling 271650; format: binding
T4 construct: purchased Eurofins Discovery Services (Panlabs safety panel)
T4 sequence (P28223 whole entry): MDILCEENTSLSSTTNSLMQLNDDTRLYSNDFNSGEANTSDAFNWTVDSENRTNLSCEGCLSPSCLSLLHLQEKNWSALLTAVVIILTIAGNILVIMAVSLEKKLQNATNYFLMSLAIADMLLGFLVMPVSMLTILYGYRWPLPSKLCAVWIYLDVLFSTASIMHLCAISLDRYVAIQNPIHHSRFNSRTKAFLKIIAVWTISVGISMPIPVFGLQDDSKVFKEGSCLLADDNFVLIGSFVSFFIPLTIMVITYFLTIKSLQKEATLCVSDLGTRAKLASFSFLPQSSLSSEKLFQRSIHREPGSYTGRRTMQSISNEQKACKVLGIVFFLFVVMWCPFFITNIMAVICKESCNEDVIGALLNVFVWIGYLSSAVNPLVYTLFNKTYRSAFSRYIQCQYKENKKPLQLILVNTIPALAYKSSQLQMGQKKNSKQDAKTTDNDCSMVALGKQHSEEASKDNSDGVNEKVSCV
Procedure: as §2

[3] = target: T5, Serotonin (5-hydroxytryptamine) 5-HT3 (Homo sapiens, UniProt P46098); test: Receptor Profiling 271910; format: binding
T5 construct: Eurofins Discovery Services (contract assay) 271910
T5 sequence (P46098 24-478): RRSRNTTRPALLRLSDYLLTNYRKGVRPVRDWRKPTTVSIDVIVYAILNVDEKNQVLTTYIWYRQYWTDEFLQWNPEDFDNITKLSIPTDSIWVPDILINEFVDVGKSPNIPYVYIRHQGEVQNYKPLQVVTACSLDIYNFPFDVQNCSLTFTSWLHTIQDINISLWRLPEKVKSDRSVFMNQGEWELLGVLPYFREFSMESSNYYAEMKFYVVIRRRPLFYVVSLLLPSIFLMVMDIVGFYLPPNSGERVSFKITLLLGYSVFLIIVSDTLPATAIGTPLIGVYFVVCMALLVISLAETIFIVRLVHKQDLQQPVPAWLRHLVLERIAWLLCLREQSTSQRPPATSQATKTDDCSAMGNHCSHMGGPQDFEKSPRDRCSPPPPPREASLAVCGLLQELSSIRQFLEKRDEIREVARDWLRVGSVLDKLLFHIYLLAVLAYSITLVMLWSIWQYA
Procedure: as §2

[4] = target: T6, Protein Tyrosine Kinase, LCK (Homo sapiens, UniProt P06239); test: Receptor Profiling 176020; format: biochemical
T6 construct: purchased Eurofins Discovery Services (Panlabs safety panel)
Procedure: as §2

[5] = Liver microsome stability, rat; format: in vitro ADME
Procedure: as §1

CYP2D6 = target: T7, CYP2D6 (Homo sapiens, UniProt P10635); test: Cyp inhibition assay 4875; format: in vitro ADME; conditions: catalog reference 4875, read-out: pIC50 (µM) reported (converted)
T7 construct: Eurofins Discovery Services (contract assay) 4875
T7 sequence (P10635 whole entry): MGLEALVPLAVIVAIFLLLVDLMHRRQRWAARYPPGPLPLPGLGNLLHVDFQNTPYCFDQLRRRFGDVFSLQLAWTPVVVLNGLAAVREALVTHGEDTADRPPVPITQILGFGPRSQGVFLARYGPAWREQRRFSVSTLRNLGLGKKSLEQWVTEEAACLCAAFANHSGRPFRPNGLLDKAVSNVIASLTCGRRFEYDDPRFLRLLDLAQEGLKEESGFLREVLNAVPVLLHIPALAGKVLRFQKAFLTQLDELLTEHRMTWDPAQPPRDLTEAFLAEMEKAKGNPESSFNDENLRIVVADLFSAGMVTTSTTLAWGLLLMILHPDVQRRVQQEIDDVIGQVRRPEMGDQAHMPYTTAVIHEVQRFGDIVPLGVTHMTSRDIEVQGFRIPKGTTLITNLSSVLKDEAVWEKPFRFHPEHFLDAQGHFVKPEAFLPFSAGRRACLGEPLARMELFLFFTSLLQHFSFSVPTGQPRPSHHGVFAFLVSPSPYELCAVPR
Procedure: as §2

[6] = target: T8, Transporter, Norepinephrine (NET) (Homo sapiens, UniProt P23975); test: Receptor Profiling 204410; format: binding
T8 construct: purchased Eurofins Discovery Services 204410
T8 sequence (P23975 whole entry): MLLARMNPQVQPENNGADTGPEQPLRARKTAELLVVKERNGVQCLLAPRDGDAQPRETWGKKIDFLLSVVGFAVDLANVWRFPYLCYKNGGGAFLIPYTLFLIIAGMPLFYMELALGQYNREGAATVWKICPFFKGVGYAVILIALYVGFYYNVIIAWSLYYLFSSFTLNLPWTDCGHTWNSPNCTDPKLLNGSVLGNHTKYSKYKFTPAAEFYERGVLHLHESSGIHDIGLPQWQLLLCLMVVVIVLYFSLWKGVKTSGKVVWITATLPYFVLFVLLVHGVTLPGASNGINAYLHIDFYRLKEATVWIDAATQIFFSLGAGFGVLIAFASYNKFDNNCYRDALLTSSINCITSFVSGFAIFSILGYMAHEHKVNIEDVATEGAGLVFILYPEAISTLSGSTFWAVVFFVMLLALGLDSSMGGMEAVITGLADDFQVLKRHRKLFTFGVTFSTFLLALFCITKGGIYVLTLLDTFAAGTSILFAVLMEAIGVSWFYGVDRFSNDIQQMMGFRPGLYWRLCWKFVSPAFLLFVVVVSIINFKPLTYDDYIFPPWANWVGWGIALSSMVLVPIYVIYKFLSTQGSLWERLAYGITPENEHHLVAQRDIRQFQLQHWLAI
Procedure: as §2

[7] = Murine tolerability studies; format: in vivo; conditions: for adverse effects (in words): mice
Procedure: Single dose tolerability studies — Female CD-1 mice were fasted for 2 h prior, and 4 h after dosing. […] 4–6 weeks-old CD-1 female mice were received from Charles River laboratories and acclimated for at least 5 days prior to the start of the study. Apart from specific instances of fasting described in the experimental, the mice had free access to food and water. The animals were housed 3–6 per cage in a temperature and humidity-controlled room with a 12 h light cycle. All procedures described are in compliance with the Animal Welfare Act, the Guide for the Care and Use of Laboratory Animals, and the Office of Laboratory Animal Welfare. These studies conform to the NeoSome IACUC policies and Operational Guidelines as approved by the IACUC membership, NeoSome Safety Officers, or Attending Veterinarian. All testing was performed at Neosome LLC.
Multidose tolerability studies — In preparation for this study, an abbreviated version of the above murine PK study using the same formulation (A) examined fasted mice vs. fed mice was performed, with plasma samples taken at 1 and 4 h post dosing and analyses as described in the PK section.
Female CD-1 mice were given free access to food and water. […] Any abnormal observations (behavior, agility, weight, coat condition and appearance, color of urine, quality of feces, etc.) were noted.

[8] = target: T9, Serotonin (5-hydroxytryptamine) 5-HT1A (Homo sapiens, UniProt P08908); test: Receptor Profiling 271110; format: binding
T9 construct: purchased Eurofins Discovery Services (Panlabs safety panel)
T9 sequence (P08908 whole entry): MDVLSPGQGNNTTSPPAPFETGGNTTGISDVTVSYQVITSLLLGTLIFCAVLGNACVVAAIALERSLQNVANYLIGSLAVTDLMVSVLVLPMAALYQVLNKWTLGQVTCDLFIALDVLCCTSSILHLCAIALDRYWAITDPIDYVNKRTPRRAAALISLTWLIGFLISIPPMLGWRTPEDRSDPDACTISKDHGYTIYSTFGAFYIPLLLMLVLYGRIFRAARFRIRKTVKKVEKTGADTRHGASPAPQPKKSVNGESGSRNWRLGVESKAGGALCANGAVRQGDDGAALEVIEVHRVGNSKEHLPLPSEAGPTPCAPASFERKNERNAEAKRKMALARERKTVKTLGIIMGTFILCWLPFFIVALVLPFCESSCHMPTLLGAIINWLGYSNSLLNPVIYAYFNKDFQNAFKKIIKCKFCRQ
Procedure: as §2

[9] = system: N. gonorrhoeae ATCC 49226; test: Time-kill assay
CYP2C9 = target: T10, CYP2C9 (Homo sapiens, UniProt P11712); test: Cyp inhibition assay 4878; format: in vitro ADME; conditions: catalog reference 4878
T10 construct: Eurofins Discovery Services (contract assay) 4878
T10 sequence (P11712 whole entry): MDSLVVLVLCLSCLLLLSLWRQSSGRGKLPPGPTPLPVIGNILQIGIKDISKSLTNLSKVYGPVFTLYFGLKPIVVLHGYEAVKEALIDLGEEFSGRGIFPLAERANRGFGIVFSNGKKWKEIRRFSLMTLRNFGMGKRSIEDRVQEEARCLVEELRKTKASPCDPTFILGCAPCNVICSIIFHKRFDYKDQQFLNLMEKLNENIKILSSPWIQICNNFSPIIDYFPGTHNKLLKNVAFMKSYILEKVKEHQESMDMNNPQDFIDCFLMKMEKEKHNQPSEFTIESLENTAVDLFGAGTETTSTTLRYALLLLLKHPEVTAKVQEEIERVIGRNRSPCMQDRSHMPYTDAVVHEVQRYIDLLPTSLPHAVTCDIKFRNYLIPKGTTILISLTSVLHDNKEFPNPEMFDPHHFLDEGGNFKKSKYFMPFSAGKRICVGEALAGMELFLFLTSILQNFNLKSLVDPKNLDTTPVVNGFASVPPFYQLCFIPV
Procedure: as §2

Sodium Channel, Site 2 = test: Receptor Profiling 279510; format: binding, rat; conditions: 10 μM
Procedure: as §2

CYP1A = test: Cyp inhibition assay 4876; format: in vitro ADME, human; conditions: catalog reference 4876
Procedure: as §2

Adrenergic α2A = target: T11, Adrenergic α2A (Homo sapiens, UniProt P08913); test: Receptor Profiling 203630; format: binding
T11 construct: purchased Eurofins Discovery Services (Panlabs safety panel)
T11 sequence (P08913 whole entry): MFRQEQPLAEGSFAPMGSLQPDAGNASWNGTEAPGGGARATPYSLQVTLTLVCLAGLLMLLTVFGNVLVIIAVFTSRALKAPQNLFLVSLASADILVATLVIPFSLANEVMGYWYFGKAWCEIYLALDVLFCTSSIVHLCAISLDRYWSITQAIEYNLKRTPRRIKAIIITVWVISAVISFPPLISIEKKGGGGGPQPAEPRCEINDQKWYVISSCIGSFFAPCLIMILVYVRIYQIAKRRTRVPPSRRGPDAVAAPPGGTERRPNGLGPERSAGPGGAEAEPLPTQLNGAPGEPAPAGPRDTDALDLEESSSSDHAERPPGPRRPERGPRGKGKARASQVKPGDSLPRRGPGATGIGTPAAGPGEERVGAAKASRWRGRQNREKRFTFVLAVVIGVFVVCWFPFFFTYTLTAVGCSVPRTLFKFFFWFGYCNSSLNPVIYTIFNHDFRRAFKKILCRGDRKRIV
Procedure: as §2

## O=C(Nc1nnc(-c2ccc(F)cc2)o1)N1CCc2ccccc2C1 [MBX-4132]
[1]; Reported value, Eurofins
  Microsomal stability (t½, min) Human: >120 min
[1]; human, liver microsomes, read-out: Microsomal Stability (t1/2; min) Hum.
  half-life: > 2 h
Potassium Channel [KA]
  % inhibition: -2%
Cannabinoid CB1
  inhibition at 10 µM: -4%
Dopamine D2s
  inhibition at 10 µM: 21%
CYP2C8
  IC50: > 100 µM
[2]
  inhibition at 10 µM: 18%
[3]
  inhibition at 10 µM: 4%
[4]
  inhibition at 10 µM: 29%
[5]; Reported value, Eurofins
  Microsomal stability (t½, min) Rat: >120 min
[5]; rat, liver microsomes, read-out: Microsomal Stability (t1/2; min) Rat
  half-life: > 2 h
CYP2D6
  IC50: > 100 µM
[6]
  inhibition at 10 µM: 6%
[7]; female CD-1 mice, 10 ml/kg of 1.0 mg/ml suspension QD or BID for 7 d, observed 10 d
  abnormal observations, multidose tolerability: No abnormal observations
[7]; female CD-1 mice, oral gavage 10 ml/kg of 1.0, 2.5 or 10.0 mg/ml suspension, 24 h
  abnormal observations, single dose tolerability: No abnormal observations
[7]; repeat dosing 10 mg/kg BID, 7 d
  adverse effects (in words): no obvious adverse effects
[7]; single dose of 100 mg/kg
  adverse effects (in words): no obvious adverse effects
[8]
  inhibition at 10 µM: 30%
[9]; 1X MIC, 0 h
  AVE CFU/ml: 9800000 CFU/ml
[9]; 1X MIC, 1 h
  AVE CFU/ml: 7.80E+06 CFU/ml and 7800000 CFU/ml
  CFU/mL, replicates 1-3: 7400000 CFU/mL and 6800000 CFU/mL and 9200000 CFU/mL
[9]; 1X MIC, 2 h
  AVE CFU/ml: 3.60E+06 CFU/ml and 3600000 CFU/ml
  CFU/mL, replicates 1-3: 3800000 CFU/mL and 3600000 CFU/mL and 3400000 CFU/mL
[9]; 1X MIC, 4 h
  AVE CFU/ml: 5133333 CFU/ml and 5.13E+06 CFU/ml
  CFU/mL, replicates 1-3: 5800000 CFU/mL and 5200000 CFU/mL and 4400000 CFU/mL
[9]; 1X MIC, 6 h
  AVE CFU/ml: 6200000 CFU/ml and 6.20E+06 CFU/ml
  CFU/mL, replicates 1-3: 6000000 CFU/mL and 5800000 CFU/mL and 6800000 CFU/mL
[9]; 1X MIC, 8 h
  AVE CFU/ml: 1173333 CFU/ml
[9]; 1X MIC, 8 h, listed as 4132
  AVE CFU/ml: 1.17E+06 CFU/ml
  CFU/mL, replicates 1-3: 1120000 CFU/mL and 1160000 CFU/mL and 1240000 CFU/mL
[9]; 1X MIC, 24 h
  AVE CFU/ml: 6866667 CFU/ml and 6.87E+06 CFU/ml
  CFU/mL, replicates 1-3: 7400000 CFU/mL and 6400000 CFU/mL and 6800000 CFU/mL
[9]; 4X MIC, 0 h
  AVE CFU/ml: 9800000 CFU/ml
[9]; 4X MIC, 1 h
  AVE CFU/ml: 5.73E+06 CFU/ml and 5733333 CFU/ml
  CFU/mL, replicates 1-3: 6400000 CFU/mL and 5600000 CFU/mL and 5200000 CFU/mL
[9]; 4X MIC, 2 h
  AVE CFU/ml: 3.73E+06 CFU/ml and 3733333 CFU/ml
  CFU/mL, replicates 1-3: 3600000 CFU/mL and 3400000 CFU/mL and 4200000 CFU/mL
[9]; 4X MIC, 4 h
  AVE CFU/ml: 2733333 CFU/ml and 2.73E+06 CFU/ml
  CFU/mL, replicates 1-3: 2400000 CFU/mL (2×) and 3400000 CFU/mL
[9]; 4X MIC, 6 h
  AVE CFU/ml: 2866667 CFU/ml and 2.87E+06 CFU/ml
  CFU/mL, replicates 1-3: 3000000 CFU/mL (2×) and 2600000 CFU/mL
[9]; 4X MIC, 8 h
  AVE CFU/ml: 760000 CFU/ml and 7.60E+05 CFU/ml
  CFU/mL, replicates 1-3: 780000 CFU/mL and 800000 CFU/mL and 700000 CFU/mL
[9]; 4X MIC, 24 h
  AVE CFU/ml: 0 CFU/ml and 0.00E+00 CFU/ml
  CFU/mL, replicates 1-3: 0 CFU/mL
[9]; 8X MIC, 0 h
  AVE CFU/ml: 9800000 CFU/ml
[9]; 8X MIC, 1 h
  AVE CFU/ml: 5.13E+06 CFU/ml and 5133333 CFU/ml
  CFU/mL, replicates 1-3: 5200000 CFU/mL and 4600000 CFU/mL and 5600000 CFU/mL
[9]; 8X MIC, 2 h
  AVE CFU/ml: 4.93E+06 CFU/ml and 4933333 CFU/ml
  CFU/mL, replicates 1-3: 5400000 CFU/mL and 5200000 CFU/mL and 4200000 CFU/mL
[9]; 8X MIC, 4 h
  AVE CFU/ml: 3000000 CFU/ml and 3.00E+06 CFU/ml
  CFU/mL, replicates 1-3: 3000000 CFU/mL and 2800000 CFU/mL and 3200000 CFU/mL
[9]; 8X MIC, 6 h
  AVE CFU/ml: 993333 CFU/ml and 9.93E+05 CFU/ml
  CFU/mL, replicates 1-3: 1060000 CFU/mL and 940000 CFU/mL and 980000 CFU/mL
[9]; 8X MIC, 8 h
  AVE CFU/ml: 433333 CFU/ml and 4.33E+05 CFU/ml
  CFU/mL, replicates 1-3: 400000 CFU/mL and 480000 CFU/mL and 420000 CFU/mL
[9]; 8X MIC, 24 h
  AVE CFU/ml: 0 CFU/ml and 0.00E+00 CFU/ml
  CFU/mL, replicates 1-3: 0 CFU/mL
[9]; Neisseria gonorrhoeae, ATCC49226
  MIC: 0.5 µg/mL (≈ 1.48 µM)
[9]; time-kill, N. gonorrhoeae
  bactericidal concentration: ≥ 4 X MIC
CYP2C9
  pIC50 (µM) reported: No activity
Sodium Channel, Site 2
  % inhibition: 21%
CYP1A
  pIC50 (µM) reported: No activity
Adrenergic α2A
  inhibition at 10 µM: 35%
